Tests used:
[1] = biological target: recombinant human WT SOD1 (Homo sapiens, UniProt P00441); format: biochemical
[2] = biological target: T1, DJ-1 (Homo sapiens, UniProt Q99497); format: binding
[3] = biological target: WT DJ-1 (Homo sapiens, UniProt Q99497); format: biochemical
[4] = biological target: T1, DJ-1; format: biochemical
[5] = in vivo; cited from earlier work
[6] = biological target: SOD1 (Homo sapiens, UniProt P00441); format: biochemical
Chain of SOD1 (P00441 whole entry): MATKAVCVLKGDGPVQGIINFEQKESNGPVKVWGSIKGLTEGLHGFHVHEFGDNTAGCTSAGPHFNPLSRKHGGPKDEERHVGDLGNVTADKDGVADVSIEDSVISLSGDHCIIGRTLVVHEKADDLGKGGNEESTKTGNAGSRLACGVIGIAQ

Chain of WT DJ-1 (Q99497 whole entry): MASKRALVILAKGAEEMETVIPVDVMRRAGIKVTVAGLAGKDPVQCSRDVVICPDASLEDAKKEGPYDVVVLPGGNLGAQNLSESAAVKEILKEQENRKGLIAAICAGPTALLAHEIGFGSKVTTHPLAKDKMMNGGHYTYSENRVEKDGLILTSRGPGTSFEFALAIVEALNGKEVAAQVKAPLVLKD
T1 sequence (Q99497 whole entry): as above
Chain of recombinant human WT SOD1 (P00441 whole entry): as the sequence (P00441 whole entry) above

SMILES | covalent dimerization of SOD1 [1] | denaturation temperature of DJ-1 [2] | covalent dimerization of DJ-1 [3] | further results
OCC1(CO)CSSC1 [1,2-dithiolane-4,4-dimethanol] | capable of covalently dimerizing SOD1 | – | – | –
NC(=O)NN=C1CSSC1 [NSC72268] | – | increase the measured denaturation temperature of DJ-1 | specific covalent dimerizer of DJ-1 | –
[O-][S+]1CCCCS1 (stereo not shown) [NSC56224, 1-oxo-1,2-dithiane] | capable of covalently dimerizing SOD1 | increase the measured denaturation temperature of DJ-1 | covalent dimerizer of DJ-1 | extent of cross-linking of SOD1 monomers [1]: able to cross-link the majority of SOD1 monomers in the sample; site of covalent linkage in DJ-1 dimer [4]: covalently linked DJ-1 dimers at Cys53
CC(C)C[C@H](NC(=O)[C@H](Cc1ccccc1)NC(=O)c1cnccn1)B(O)O [bortezomib] | – | – | – | LD100 [5]: < 0.25 mg/kg
O=C1C=CC(=O)N1CCSSCCN1C(=O)C=CC1=O [DTME, dithio-bismaleimidocthane] | – | – | – | cross-linking of SOD1 monomers [6]: able to cross-link SOD1 monomers
